From ChEMBL document CHEMBL1132850, “Design, synthesis and structure-activity relationship of a series of arginine aldehyde factor Xa inhibitors. Part 1: structures based on the (D)-Arg-Gly-Arg tripeptide sequence” (Bioorg Med Chem Lett, 2000)
Square brackets hold non-standard residues; d marks the D form. Peptide text beside a SMILES is read from it. * marks the point of attachment. ξ: configuration not given here. 1Nal = N[C@@H](Cc1cccc2ccccc12)C(=O)O; ξR = N=C(N)NCCCC(N)C(=O)O; Boc = CC(C)(C)OC(=O)*; ξP = O=C(O)C1CCCN1

What was measured:
[1] = Inhibitory activity against prothrombinase complex (IIase).
[2] = target: Thrombin and coagulation factor X (Homo sapiens) (UniProt P00734+P00742); assay: Ratio of factor Xa inhibitory activity to that of factor IIa inhibitory activity; type: protein assay
Prothrombin = Prothrombin (Homo sapiens, UniProt P00734); assay: Inhibitory activity against coagulation factor II (thrombin).
Coagulation factor X [3] = target: Coagulation factor X (Homo sapiens, UniProt P00742); assay: Inhibitory activity against coagulation factor X.
Coagulation factor X [4] = target: Coagulation factor X (Bos taurus, UniProt P00743); assay: Second-order rate of substrate hydrolysis (kcat/Km) by bovine coagulation factor X
Sequence of Coagulation factor X (Bos taurus, UniProt P00743) (P00743 41-180 limits assumed): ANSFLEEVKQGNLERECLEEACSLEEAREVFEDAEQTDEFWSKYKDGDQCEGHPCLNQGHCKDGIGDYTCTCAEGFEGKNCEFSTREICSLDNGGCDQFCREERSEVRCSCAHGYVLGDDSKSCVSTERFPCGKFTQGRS
Sequence of Coagulation factor X (Bos taurus, UniProt P00743) (P00743 234-492 limits assumed): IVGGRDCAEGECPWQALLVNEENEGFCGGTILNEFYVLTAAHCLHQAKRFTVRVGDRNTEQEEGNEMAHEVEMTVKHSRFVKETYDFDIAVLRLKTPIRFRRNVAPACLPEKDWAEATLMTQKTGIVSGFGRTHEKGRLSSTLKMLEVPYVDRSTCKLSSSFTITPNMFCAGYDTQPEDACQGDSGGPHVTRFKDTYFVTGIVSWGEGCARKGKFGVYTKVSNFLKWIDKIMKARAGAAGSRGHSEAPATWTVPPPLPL

Sequence of Thrombin and coagulation factor X (Homo sapiens) (P00742 whole entry, looked up, other chains not shown): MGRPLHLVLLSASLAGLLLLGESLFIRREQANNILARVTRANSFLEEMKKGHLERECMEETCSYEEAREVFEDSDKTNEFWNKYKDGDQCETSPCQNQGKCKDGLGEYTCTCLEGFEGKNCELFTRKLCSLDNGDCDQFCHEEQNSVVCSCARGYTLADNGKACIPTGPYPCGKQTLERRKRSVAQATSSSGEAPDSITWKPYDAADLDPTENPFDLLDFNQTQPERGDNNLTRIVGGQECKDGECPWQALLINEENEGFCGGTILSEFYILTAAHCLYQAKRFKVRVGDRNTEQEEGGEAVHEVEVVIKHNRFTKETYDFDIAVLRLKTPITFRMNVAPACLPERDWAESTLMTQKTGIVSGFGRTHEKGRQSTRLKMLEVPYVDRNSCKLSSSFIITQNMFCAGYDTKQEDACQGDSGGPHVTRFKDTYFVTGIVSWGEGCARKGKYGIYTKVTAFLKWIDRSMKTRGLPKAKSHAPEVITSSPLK
Sequence of Coagulation factor X (Homo sapiens, UniProt P00742) (P00742 41-179 limits assumed): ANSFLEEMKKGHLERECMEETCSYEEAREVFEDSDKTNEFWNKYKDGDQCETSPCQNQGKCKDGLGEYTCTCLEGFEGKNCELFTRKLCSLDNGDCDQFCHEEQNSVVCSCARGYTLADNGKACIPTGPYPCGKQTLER
Sequence of Coagulation factor X (Homo sapiens, UniProt P00742) (P00742 235-488 limits assumed): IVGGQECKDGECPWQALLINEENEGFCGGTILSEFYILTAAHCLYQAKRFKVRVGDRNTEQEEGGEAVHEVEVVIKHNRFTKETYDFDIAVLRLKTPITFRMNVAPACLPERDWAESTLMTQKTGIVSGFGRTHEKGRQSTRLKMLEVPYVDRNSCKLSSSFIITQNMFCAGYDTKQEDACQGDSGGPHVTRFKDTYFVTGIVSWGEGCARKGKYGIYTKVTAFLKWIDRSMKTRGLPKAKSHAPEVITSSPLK

Row | SMILES | IC50 [1] [nM] | Ratio [2] | IC50 (Prothrombin) [nM] | IC50 (Coagulation factor X [3]) [nM] | kcat/Km (Coagulation factor X [4]) [M⁻¹ s⁻¹]
1 | C/N=C(\N(C)C)N(C)CCCC[C@H](NC(=O)OC(C)(C)C)C(=O)NCC(=O)NC(C=O)CCCN=C(N)N (some centres undefined) | 12000 | 30 |  |  | 
2 | C/N=C(\N(C)C)N(C)CCCC[C@H](NC(=O)OC(C)(C)C)C(=O)NCC(=O)NC(C=O)CCCNC(=N)N (some centres undefined) |  |  | > 100000 | 3000 | 
3 | N=C(N)NCCCC(C=O)NC(=O)CNC(=O)[C@H](CCCN=C(N)N)NS(=O)(=O)CCc1ccccc1 (some centres undefined) | 38 | 2300 |  |  | 
4 | N=C(N)NCCCC(C=O)NC(=O)CNC(=O)[C@H](CCCNC(=N)N)NS(=O)(=O)CCc1ccccc1 (some centres undefined) |  |  | 64000 | 28 | 
5 | N=C(N)NCCCC(C=O)NC(=O)CNC(=O)[C@H](CCCNC(=N)N)NS(=O)(=O)Cc1ccccc1 (some centres undefined) |  |  | 50000 |  | 
6 | N=C(N)NCCCC(C=O)NC(=O)CNC(=O)[C@H](CCCNC(=N)N)NS(=O)(=O)CCc1cccc2ccccc12 (some centres undefined) | 20 | 1500 | 39000 | 27 | 
7 | CN(CC(=O)NC(C=O)CCCN=C(N)N)C(=O)[C@H](CCCN=C(N)N)NS(=O)(=O)Cc1ccccc1 (some centres undefined) | 58 | 100 |  |  | 
8 | CN(CC(=O)NC(C=O)CCCNC(=N)N)C(=O)[C@H](CCCNC(=N)N)NS(=O)(=O)Cc1ccccc1 (some centres undefined) |  |  | 2000 | 20 | 
9 | CC(C)(C)OC(=O)N[C@@H](CCCNC(=N)N)C(=O)NCCC(=O)NC(C=O)CCCNC(=N)N (some centres undefined) |  |  | > 500000 |  | 
10 | N=C(N)NCCCC(C=O)NC(=O)CNC(=O)[C@H](CCCNC(=N)N)NC(=O)COc1ccc2ccccc2c1 (some centres undefined) |  |  | > 100000 |  | 
11 | CC(C)(C)OC(=O)N[C@@H](CCCN=C(N)N)C(=O)N1CCC[C@H]1C(=O)NC(C=O)CCCN=C(N)N (stereo partly drawn) (Boc-Arg-Pro-[ξR]-aldehyde) | 440000 | 8 | > 500000 | 60000 | 
12 | CC(C)(C)OC(=O)N[C@@H](CCCN=C(N)N)C(=O)N[C@@H](Cc1cccc2ccccc12)C(=O)NC(C=O)CCCN=C(N)N (stereo partly drawn) (Boc-Arg-[1Nal]-[ξR]-aldehyde) | 340 | 300 |  |  | 
13 | CC(C)(C)OC(=O)N[C@@H](CCCNC(=N)N)C(=O)N[C@@H](Cc1cccc2ccccc12)C(=O)NC(C=O)CCCNC(=N)N (stereo partly drawn) (Boc-Arg-[1Nal]-[ξR]-aldehyde) |  |  | 42000 | 140 | 
14 | CC(C)(C)OC(=O)N[C@@H](CCCN=C(N)N)C(=O)N1CCCC1C(=O)NC(C=O)CCCN=C(N)N (stereo partly drawn) (Boc-Arg-[ξP]-[ξR]-aldehyde) | 21 | 4 |  |  | 
15 | CC(C)(C)OC(=O)N[C@@H](CCCNC(=N)N)C(=O)N1CCCC1C(=O)NC(C=O)CCCNC(=N)N (stereo partly drawn) (Boc-Arg-[ξP]-[ξR]-aldehyde) |  |  | 200 | 46 | 
16 | N=C(N)NCCC[C@H](NC(=O)CNC(=O)[C@@H](CCCNC(=N)N)NC(=O)OCc1ccccc1)C(=O)Nc1ccc([N+](=O)[O-])cc1 (HELM PEPTIDE1{[O=C(OCc1ccccc1)[*:2]].[dR].G.R.[O=[N+]([O-])c1ccc(N[*:1])cc1]}$$$$V2.0) |  |  |  |  | 2.27e+06

Row | SMILES | IC50 [1] [nM] | Ratio [2] | IC50 (Prothrombin) [nM] | IC50 (Coagulation factor X [3]) [nM] | kcat/Km (Coagulation factor X [4]) [M⁻¹ s⁻¹]
17 | CC[C@H](C)[C@H](NC(=O)c1ccccc1)C(=O)N[C@@H](CCC(=O)O)C(=O)NCC(=O)N[C@@H](CCCN=C(N)N)C(=O)Nc1ccc([N+](=O)[O-])cc1 (HELM PEPTIDE1{[O=C(c1ccccc1)[*:2]].I.E.G.R.[O=[N+]([O-])c1ccc(N[*:1])cc1]}$$$$V2.0) |  |  |  |  | 350000
18 | CC(C)(C)OC(=O)NC(CCCN=C(N)N)C(=O)NC(C)(C)C(=O)N[C@H](C=O)CCCN=C(N)N (single isomer, unassigned) |  |  | > 500000 |  | 
19 | CC(C)(C)OC(=O)NC(CCCCN=C(N)N)C(=O)NCC(=O)N[C@H](C=O)CCCN=C(N)N (single isomer, unassigned) | 170 | 4000 | 400000 |  | 
20 | CC(=N)NCCCC(NC(=O)OC(C)(C)C)C(=O)NCC(=O)N[C@H](C=O)CCCN=C(N)N (single isomer, unassigned) | 10000 | 88 | 88000 | 1000 | 
21 | CC(C)(C)OC(=O)NC(CCCNC(N)=O)C(=O)NCC(=O)N[C@H](C=O)CCCN=C(N)N (single isomer, unassigned) |  |  | > 100000 |  | 
22 | CC(C)(C)OC(=O)NC(CCCN)C(=O)NCC(=O)N[C@H](C=O)CCCN=C(N)N (single isomer, unassigned) | 65000 | 42 | > 500000 | 12000 | 
23 | N=C(N)NCCCC(NC(=O)CC(=O)O)C(=O)NCC(=O)N[C@H](C=O)CCCNC(=N)N (single isomer, unassigned) |  |  | > 100000 | 100 | 
24 | N=C(N)NCCCC(NC(=O)CCC(=O)O)C(=O)NCC(=O)N[C@H](C=O)CCCNC(=N)N (single isomer, unassigned) |  |  | > 100000 |  | 
25 | N=C(N)NCCCC(NC(=O)CCc1ccccc1)C(=O)NCC(=O)N[C@H](C=O)CCCNC(=N)N (single isomer, unassigned) | 2000 | 375 |  |  | 
26 | N=C(N)NCCC[C@@H](C=O)NC(=O)CNC(=O)C(CCCN=C(N)N)NC(=O)NCc1ccccc1 (single isomer, unassigned) | 180 | 770 | 170000 | 220 | 
27 | CCOC(=O)NC(CCCN=C(N)N)C(=O)NCC(=O)N[C@H](C=O)CCCN=C(N)N (single isomer, unassigned) |  |  | > 100000 | 30 | 
28 | NC(N)=NCCCC(N)C(=O)NCC(=O)N[C@H](C=O)CCCN=C(N)N (single isomer, unassigned) | 828 | 290 | 55000 | 190 | 
29 | CC(C)(C)OC(=O)NC(CCCCN)C(=O)NCC(=O)N[C@H](C=O)CCCN=C(N)N (single isomer, unassigned) |  |  | > 100000 |  | 
30 | N=C(N)NCCCC(NC(=O)C(=O)O)C(=O)NCC(=O)N[C@H](C=O)CCCNC(=N)N (single isomer, unassigned) | 630 |  |  |  | 
31 | CC(C)(C)OC(=O)NC(CCCN=C(N)N)C(=O)NCC(=O)N[C@H](C=O)CCCN=C(N)N (single isomer, unassigned; 4) |  |  |  | 2000 | 
